Data on two compounds can be found in patent US9511341B2, “Method for preparing acetazolamide sodium powder” (SCI Pharmtech, Inc., priority 2013, dated 2016).

A short description of series [1]: Impurity D (hydrolysis product) in spray dried powder by USP HPLC method. The conditions noted are these: air vs N2 as drying gas, judged by difference of impurity D. It is filed as physicochemical. The protocol: In the developed spray drying process, the spray dryer was initiated in the preferred conditions (such as temperature and flow rate of the heated gas, and pneumatic pressure). In the meantime, an acetazolamide sodium solution was prepared by dispersing the acetazolamide powder into water in a flask inerted with N2 and then mixing the acetazolamide suspension with sodium hydroxide solution. After stirring for 15 min, an acetazolamide sodium solution was obtained and pumped into the spray dryer to proceed the drying process. During the drying process, the acetazolamide sodium solution was fed and atomized into mist by a two-fluid nozzle, and then the water was rapidly vaporized and accompanied with the nucleation of acetazolamide sodium particles in the gas flow of drying chamber. The formed particles were immediately carried into the cyclone, in which the separation of gas-solid was performed. The uncollected particles were recovered by the wet scrubber connected to the exit of cyclone. Finally, the acetazolamide sodium powder in the collector was examined by a halogen moisture analyzer and an analytical HPLC method specified in the current USP monograph of acetazolamide for injection.
In Example 2, the amount of impurity D in the acetazolamide free base was about 0.098-0.110 wt %. […]

The conditions of series [2]: cited from earlier work.

Regarding `CC(=O)Nc1nnc(S(N)(=O)=O)s1` [acetazolamide sodium powder, Acetazolamide sodium], the “Oxygen sensitivity during spray drying” value in series [1] is “not oxygen-sensitive”. Also, the Solubility in water result in series [2] is reported as “easily dissolves in water”.
In the case of `CC(=O)Nc1nnc(S(N)(=O)=O)s1` [acetazolamide], the Solubility in water entry in series [2] is “extremely low solubility in water”.
